Data taken from PubChem BioAssay AID2060614 (Molecular Pharmacology Branch, DTP, NCI, 2025).
Several values for one entry are separate records, joined by “and”; a condition that tells them apart may be missing. Identical values can stand only once. Blank lines part the entries; values can stand above or below the molecule they belong to.

Tested on: 598228-144-R-J1-PDC complex spheroids, viability
Experiment: Anticancer human tumor 598228-144-R-J1-PDC patient-derived serous endometrial adenocarcinoma cell line growth inhibition [CLK]
Conditions: for viability, T/C: stronger effect = lower value
In short: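 Multi-cell-type spheroids combined patient-derived tumor cells with HUVEC endothelial cells and human mesenchymal stem cells. Paired agents were dosed in half-log steps down from about clinical Cmax, or from 10 microM where Cmax was unknown.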

[1] = curve of first compound, second compound 0.0316 µM
[2] = curve of first compound, second compound 0.1 µM
[3] = curve of first compound, second compound 0.316 µM
[4] = curve of first compound, second compound 1 µM
[5] = curve of first compound, second compound 3.16 µM
[6] = curve of first compound, second compound 10 µM
[7] = second compound 0.0316 µM, first compound 0.0316 µM
[8] = second compound 0.0316 µM, first compound 0.1 µM
[9] = second compound 0.0316 µM, first compound 0.316 µM
[10] = second compound 0.0316 µM, first compound 1 µM
[11] = second compound 0.0316 µM, first compound 3.16 µM
[12] = second compound 0.0316 µM, first compound 10 µM
[13] = second compound 0.1 µM, first compound 0.0316 µM
[14] = second compound 0.1 µM, first compound 0.1 µM
[15] = second compound 0.1 µM, first compound 0.316 µM
[16] = second compound 0.1 µM, first compound 1 µM
[17] = second compound 0.1 µM, first compound 3.16 µM
[18] = second compound 0.1 µM, first compound 10 µM
[19] = second compound 0.316 µM, first compound 0.0316 µM
[20] = second compound 0.316 µM, first compound 0.1 µM
[21] = second compound 0.316 µM, first compound 0.316 µM
[22] = second compound 0.316 µM, first compound 1 µM
[23] = second compound 0.316 µM, first compound 3.16 µM
[24] = second compound 0.316 µM, first compound 10 µM
[25] = second compound 1 µM, first compound 0.0316 µM
[26] = second compound 1 µM, first compound 0.1 µM
[27] = second compound 1 µM, first compound 0.316 µM
[28] = second compound 1 µM, first compound 1 µM
[29] = second compound 1 µM, first compound 3.16 µM
[30] = second compound 1 µM, first compound 10 µM
[31] = second compound 3.16 µM, first compound 0.0316 µM
[32] = second compound 3.16 µM, first compound 0.1 µM
[33] = second compound 3.16 µM, first compound 0.316 µM
[34] = second compound 3.16 µM, first compound 1 µM
[35] = second compound 3.16 µM, first compound 3.16 µM
[36] = second compound 3.16 µM, first compound 10 µM
[37] = second compound 10 µM, first compound 0.0316 µM
[38] = second compound 10 µM, first compound 0.1 µM
[39] = second compound 10 µM, first compound 0.316 µM
[40] = second compound 10 µM, first compound 1 µM
[41] = second compound 10 µM, first compound 3.16 µM
[42] = second compound 10 µM, first compound 10 µM
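Also: spheroids exposed to compounds for seven days before readout.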
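For viability, T/C in this document: 100% = DMSO vehicle control wells.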

SMILES: C=CC(=O)N1CCN(c2nc(=O)n(-c3c(C)ccnc3C(C)C)c3nc(-c4c(O)cccc4F)c(F)cc23)C(C)C1 (stereo not given) + CNC(=O)c1ccc(Nc2nc(OC3CCCC3)c3c(-c4ccc5nc(C)oc5c4)c[nH]c3n2)c(OC)c1
IC50 [1]: > 10000 nM
IC50 [2]: > 10000 nM
IC50 [3]: > 10000 nM
IC50 [4]: > 10000 nM
IC50 [5]: > 10000 nM
IC50 [6]: > 10000 nM
viability, T/C [7]: 97.9%
viability, T/C [8]: 110%
viability, T/C [9]: 101%
viability, T/C [10]: 123%
viability, T/C [11]: 135%
viability, T/C [12]: 111%
viability, T/C [13]: 100%
viability, T/C [14]: 111%
viability, T/C [15]: 117%
viability, T/C [16]: 114%
viability, T/C [17]: 127%
viability, T/C [18]: 118%
viability, T/C [19]: 120%
viability, T/C [20]: 100%
viability, T/C [21]: 110%
viability, T/C [22]: 127%
viability, T/C [23]: 120%
viability, T/C [24]: 111%
viability, T/C [25]: 102%
viability, T/C [26]: 96.7%
viability, T/C [27]: 109%
viability, T/C [28]: 137%
viability, T/C [29]: 117%
viability, T/C [30]: 99.3%
viability, T/C [31]: 99.8%
viability, T/C [32]: 86.1%
viability, T/C [33]: 97.5%
viability, T/C [34]: 109%
viability, T/C [35]: 116%
viability, T/C [36]: 85.3%
viability, T/C [37]: 87.6%
viability, T/C [38]: 88.7%
viability, T/C [39]: 96.4%
viability, T/C [40]: 104%
viability, T/C [41]: 101%
viability, T/C [42]: 77.3%

SMILES: CC1(C)CCC(CN2CCN(c3ccc(C(=O)NS(=O)(=O)c4ccc(NCC5CCOCC5)c([N+](=O)[O-])c4)c(Oc4cnc5[nH]ccc5c4)c3)CC2)=C(c2ccc(Cl)cc2)C1
viability, T/C (compound 0.0316 µM): 107% and 88.7%
viability, T/C (compound 0.1 µM): 89.8% and 91.9%
viability, T/C (compound 0.316 µM): 89.7% and 89.9%
viability, T/C (compound 1 µM): 104% and 105%
viability, T/C (compound 3.16 µM): 101% and 94.9%
viability, T/C (compound 10 µM): 32.4% and 26.7%
IC50 (curve of compound): 7360 nM and 6720 nM

SMILES: NC(=O)C(=Cn1cnc(-c2cc(C(F)(F)F)cc(C(F)(F)F)c2)n1)c1cncnc1 + CNC(=O)c1ccc(Nc2nc(OC3CCCC3)c3c(-c4ccc5nc(C)oc5c4)c[nH]c3n2)c(OC)c1
IC50 [1]: 362 nM
IC50 [2]: 525 nM
IC50 [3]: 644 nM
IC50 [4]: 467 nM
IC50 [5]: 301 nM
IC50 [6]: 160 nM
viability, T/C (second compound 0.0316 µM, first compound 0.00949 µM): 110%
viability, T/C (second compound 0.0316 µM, first compound 0.03 µM): 97.5%
viability, T/C (second compound 0.0316 µM, first compound 0.0949 µM): 93.9%
viability, T/C (second compound 0.0316 µM, first compound 0.3 µM): 53.3%
viability, T/C (second compound 0.0316 µM, first compound 0.949 µM): 30.1%
viability, T/C (second compound 0.0316 µM, first compound 3 µM): 25.7%
viability, T/C (second compound 0.1 µM, first compound 0.00949 µM): 101%
viability, T/C (second compound 0.1 µM, first compound 0.03 µM): 99.8%
viability, T/C (second compound 0.1 µM, first compound 0.0949 µM): 97.9%
viability, T/C (second compound 0.1 µM, first compound 0.3 µM): 63.8%
viability, T/C (second compound 0.1 µM, first compound 0.949 µM): 36.4%
viability, T/C (second compound 0.1 µM, first compound 3 µM): 28.7%
viability, T/C (second compound 0.316 µM, first compound 0.00949 µM): 88.1%
viability, T/C (second compound 0.316 µM, first compound 0.03 µM): 95.9%
viability, T/C (second compound 0.316 µM, first compound 0.0949 µM): 82.3%
viability, T/C (second compound 0.316 µM, first compound 0.3 µM): 64%
viability, T/C (second compound 0.316 µM, first compound 0.949 µM): 43.5%
viability, T/C (second compound 0.316 µM, first compound 3 µM): 18.2%
viability, T/C (second compound 1 µM, first compound 0.00949 µM): 97.5%
viability, T/C (second compound 1 µM, first compound 0.03 µM): 97.3%
viability, T/C (second compound 1 µM, first compound 0.0949 µM): 85%
viability, T/C (second compound 1 µM, first compound 0.3 µM): 55.4%
viability, T/C (second compound 1 µM, first compound 0.949 µM): 37.1%
viability, T/C (second compound 1 µM, first compound 3 µM): 10.4%
viability, T/C (second compound 3.16 µM, first compound 0.00949 µM): 96.8%
viability, T/C (second compound 3.16 µM, first compound 0.03 µM): 73.6%
viability, T/C (second compound 3.16 µM, first compound 0.0949 µM): 68.2%
viability, T/C (second compound 3.16 µM, first compound 0.3 µM): 54.3%
viability, T/C (second compound 3.16 µM, first compound 0.949 µM): 30%
viability, T/C (second compound 3.16 µM, first compound 3 µM): 10.9%
viability, T/C (second compound 10 µM, first compound 0.00949 µM): 88.1%
viability, T/C (second compound 10 µM, first compound 0.03 µM): 72.3%
viability, T/C (second compound 10 µM, first compound 0.0949 µM): 58.7%
viability, T/C (second compound 10 µM, first compound 0.3 µM): 42%
viability, T/C (second compound 10 µM, first compound 0.949 µM): 19.6%
viability, T/C (second compound 10 µM, first compound 3 µM): 4.93%

SMILES: CN1CCN(c2cc(C(=O)Nc3cc4cc(-c5cnn(C)c5)ccc4cn3)ccn2)CC1
viability, T/C (compound 0.316 µM): 17.4% [middle of 11 runs]
viability, T/C (compound 1 µM): 3.28% [middle of 12 runs]
viability, T/C (compound 3.16 µM): 2.39% [middle of 11 runs]
viability, T/C (compound 10 µM): 1% [middle of 11 runs]
IC50 (compound alone, run of 09/18/2023): 216 nM [middle of 10 runs]

The next lines start with results.

IC50 [1]: < 31.6 nM
IC50 [2]: > 10000 nM
IC50 [3]: > 10000 nM
IC50 [4]: > 10000 nM
IC50 [5]: > 10000 nM
IC50 [6]: > 10000 nM
SMILES: CC(=O)O[C@H]1C(=O)[C@@]2(C)[C@H]([C@H](OC(=O)c3ccccc3)[C@]3(O)C[C@H](OC(=O)[C@H](O)[C@@H](NC(=O)c4ccccc4)c4ccccc4)C(C)=C1C3(C)C)[C@]1(OC(C)=O)CO[C@@H]1C[C@@H]2O + CNC(=O)c1ccc(Nc2nc(OC3CCCC3)c3c(-c4ccc5nc(C)oc5c4)c[nH]c3n2)c(OC)c1
viability, T/C [7]: 45.6%
viability, T/C [8]: 46.2%
viability, T/C [9]: 40.3%
viability, T/C [10]: 40.9%
viability, T/C [11]: 45.2%
viability, T/C [12]: 50.6%
viability, T/C [13]: 70%
viability, T/C [14]: 58%
viability, T/C [15]: 64.8%
viability, T/C [16]: 66.2%
viability, T/C [17]: 57.4%
viability, T/C [18]: 67%
viability, T/C [19]: 121%
viability, T/C [20]: 123%
viability, T/C [21]: 94.9%
viability, T/C [22]: 108%
viability, T/C [23]: 106%
viability, T/C [24]: 84.1%
viability, T/C [25]: 120%
viability, T/C [26]: 102%
viability, T/C [27]: 92.5%
viability, T/C [28]: 125%
viability, T/C [29]: 109%
viability, T/C [30]: 86.8%
viability, T/C [31]: 102%
viability, T/C [32]: 96.2%
viability, T/C [33]: 103%
viability, T/C [34]: 108%
viability, T/C [35]: 105%
viability, T/C [36]: 92.1%
viability, T/C [37]: 101%
viability, T/C [38]: 97%
viability, T/C [39]: 109%
viability, T/C [40]: 103%
viability, T/C [41]: 90.4%
viability, T/C [42]: 107%

IC50 [1]: 1890 nM
IC50 [2]: 1930 nM
IC50 [3]: 2000 nM
IC50 [4]: 2200 nM
IC50 [5]: 1330 nM
IC50 [6]: 1020 nM
SMILES: Nc1ccccc1NC(=O)c1ccc(CNC(=O)OCc2cccnc2)cc1 + CNC(=O)c1ccc(Nc2nc(OC3CCCC3)c3c(-c4ccc5nc(C)oc5c4)c[nH]c3n2)c(OC)c1
viability, T/C [7]: 115%
viability, T/C [8]: 105%
viability, T/C [9]: 101%
viability, T/C [10]: 83%
viability, T/C [11]: 23.1%
viability, T/C [12]: 12.2%
viability, T/C [13]: 111%
viability, T/C [14]: 97.8%
viability, T/C [15]: 91.4%
viability, T/C [16]: 79.7%
viability, T/C [17]: 28.4%
viability, T/C [18]: 7.48%
viability, T/C [19]: 111%
viability, T/C [20]: 105%
viability, T/C [21]: 93%
viability, T/C [22]: 66.6%
viability, T/C [23]: 39%
viability, T/C [24]: 4.74%
viability, T/C [25]: 110%
viability, T/C [26]: 81.9%
viability, T/C [27]: 88.7%
viability, T/C [28]: 65%
viability, T/C [29]: 45.6%
viability, T/C [30]: 6.12%
viability, T/C [31]: 91.6%
viability, T/C [32]: 86.5%
viability, T/C [33]: 70.2%
viability, T/C [34]: 55.1%
viability, T/C [35]: 34.4%
viability, T/C [36]: 4.38%
viability, T/C [37]: 100%
viability, T/C [38]: 88.9%
viability, T/C [39]: 73.3%
viability, T/C [40]: 50.5%
viability, T/C [41]: 25.8%
viability, T/C [42]: 4.15%
